Measured values as given in patent US5585376A, “1,5-benzodiazepine derivatives having CCK and/or gastrin antagonistic activity” (Glaxo Wellcome Inc., priority 1993, dated 1996).

Biological target: T1, human CCK-B receptor (Homo sapiens, UniProt P32239)
T1 construct: expressed in transfected cells; host or cells: HeLa cells (membranes), stably transfected
T1 sequence (P32239 1-447): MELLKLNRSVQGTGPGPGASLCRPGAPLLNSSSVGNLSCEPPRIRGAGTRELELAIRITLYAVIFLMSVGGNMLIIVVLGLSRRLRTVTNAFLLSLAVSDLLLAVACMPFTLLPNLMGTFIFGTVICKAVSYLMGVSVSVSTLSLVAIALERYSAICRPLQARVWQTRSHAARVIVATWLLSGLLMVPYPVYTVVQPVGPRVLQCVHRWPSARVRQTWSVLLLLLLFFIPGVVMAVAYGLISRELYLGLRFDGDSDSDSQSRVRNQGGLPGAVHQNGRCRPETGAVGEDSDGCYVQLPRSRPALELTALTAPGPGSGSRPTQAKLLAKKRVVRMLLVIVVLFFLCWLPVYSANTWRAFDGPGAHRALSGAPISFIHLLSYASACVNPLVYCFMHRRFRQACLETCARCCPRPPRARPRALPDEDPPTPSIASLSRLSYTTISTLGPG
Test: CCK-B receptor binding, transfected HeLa cell membranes, [125I]BH-sCCK-8
Conditions: HeLa cell membranes stably transfected with human CCK-B receptor; 30 pM [125I]BH-sCCK-8
Protocol: Alternatively the binding affinity of compounds of the invention for CCK-A and CCK-B receptors may be determined using HeLa cell membranes that are transfected with the human CCK-B receptor or, COS-M6 cell membranes that are transiently transfected with the human CCK-A receptor.
CCK-B receptor binding studies were carried out using HeLa cell membranes which had been stabily transfected with the human CCK-B receptor cloned from temporal cortex cDNA library.
The transfected HeLa cell membranes were incubated with 30 pM [^125 ]BH-sCCK-8 in the presence of various concentrations of the test compound (1 pM to 1 μM). All experiments were performed in an assay volume of 250 μl. Membranes were harvested onto GF/C glass fibre filter paper (Whatman, UK) by rapid filtration using a Cell Harvester (Brandel model M-24R) and washed three times with HEPES Wash buffer chilled to 4° C. The radioactivity trapped on individual filter discs was counted over 60 seconds using a gamma counter (Mini Gamma counter, LKB, Wallac, Finland) at a counting efficiency of 77%. A control experiment was also carded out in the absence of a test compound.
Analysis of the data was performed by computer-assisted non-linear regression (ALLFIT programmes DeLean et al., 1978;). IC50 values for the test compounds were convened to Ki values using the Cheng & Prussof equation (Ki =IC50 /(1+[L]/KD)) (Cheng and Prussof, 1973).

Ki [nM] | Structure (SMILES)
7.94 | O=C(Nc1ccc(F)cc1)NC1C(=O)N(CC(=O)N2CCCC2)c2ccccc2N(C2CCCCC2)C1=O (single isomer, unassigned) [1 (isomer 2), 1-[1-Cyclohexyl-2,4-dioxo-5-(2-oxo-2-pyrrolidin-1-yl-ethyl)-2,3,4,5-tetrahydro-1H-benzo[b][1.4]diazepin-3-yl]-3-(4-fluoro-phenyl)urea]
3.16 | O=C(Nc1ccc(F)cc1)NC1C(=O)N(CC(=O)N2CCCC2)c2ccccc2N(C2CCCCC2)C1=O (single isomer, unassigned) [Example 1 (isomer 1), 1-[1-Cyclohexyl-2,4-dioxo-5-(2-oxo-2-pyrrolidin-1-yl-ethyl)-2,3,4,5-tetrahydro-1H-benzo[b][1.4]diazepin-3-yl]-3-(4-fluoro-phenyl)urea]
3.16 | O=C(Nc1ccc(F)cc1)NC1C(=O)N(CC(=O)N2CCCC2)c2ccccc2N(C2CCCCC2)C1=O (stereo not drawn) [Example 1, 1-[1-Cyclohexyl-2,4-dioxo-5-(2-oxo-2-pyrrolidin-1-yl-ethyl)-2,3,4,5-tetrahydro-1H-benzo[b][1.4]diazepin-3-yl]-3-(4-fluoro-phenyl)urea]
2 | O=C(Nc1cccc(C(=O)O)c1)NC1C(=O)N(CC(=O)N2CCCC2)c2ccccc2N(C2CCCCC2)C1=O (stereo not drawn) [Example 2, 3-{3-[1-Cyclohexyl-2,4-dioxo-5-(2-oxo-2-pyrrolidin-1-yl-ethyl)-2,3,4,5-tetrahydro-1H-benzo[b][1.4]diazepin-3-yl]-ureido}-benzoic acid]
5.01 | O=C(Nc1cccc(F)c1)NC1C(=O)N(CC(=O)N2CCCC2)c2ccccc2N(C2CCCCC2)C1=O (stereo not drawn) [Example 7]
2.51 | O=C(Nc1cccc([N+](=O)[O-])c1)NC1C(=O)N(CC(=O)N2CCCC2)c2ccccc2N(C2CCCCC2)C1=O (stereo not drawn) [Example 8]
3.98 | O=C(Nc1ccccc1)NC1C(=O)N(CC(=O)N2CCCC2)c2ccccc2N(C2CCCCC2)C1=O (stereo not drawn) [Example 10]
1 | CN(C)c1cccc(NC(=O)NC2C(=O)N(CC(=O)N3CCCC3)c3ccccc3N(C3CCCCC3)C2=O)c1 (stereo not drawn) [Example 12]

Structure (SMILES) | Ki [nM]
O=C(O)Cc1cccc(NC(=O)NC2C(=O)N(CC(=O)N3CCCC3)c3ccccc3N(c3ccccc3F)C2=O)c1 (stereo not drawn) [Example 3, (3-{3-[1-(2-Fluoro-phenyl)-2,4-dioxo-5-(2-oxo-2-pyrrolidin-1-yl-ethyl)-2,3,4,5-tetrahydro-1H-benzo[b][1,4]diazepin-3-yl]-ureido}-phenyl)-acetic acid] | 3.98
CC1(C)CCCN(C(=O)CN2C(=O)C(NC(=O)Nc3cccc(C(=O)O)c3)C(=O)N(c3ccccc3F)c3ccccc32)C1 (stereo not drawn) [Example 4, 3-{3-[1-[2-(3,3-Dimethyl-piperidin-1-yl)-2-oxo-ethyl]-5-(2-fluoro-phenyl)-2,4-dioxo-2,3,4,5-tetrahydro-1H-benzo[b][1,4]diazepin-3-yl]-ureido}-benzoic acid] | 1.58
O=C(Nc1cccc(-c2nn[nH]n2)c1)NC1C(=O)N(CC(=O)N2CCCC2)c2ccccc2N(c2ccccc2)C1=O (stereo not drawn) [Example 14] | 3.16
Cc1cccc(NC(=O)NC2C(=O)N(CC(=O)N3CCCC3)c3ccccc3N(c3ccccc3)C2=O)c1 (stereo not drawn) [Example 15] | 1.58
CC1(C)CCCN(C(=O)CN2C(=O)C(NC(=O)Nc3ccc(F)cc3)C(=O)N(c3ccccc3F)c3ccccc32)C1 (stereo not drawn) [Example 20] | 2

Tested on: gastric acid secretion
Test: gastric acid secretion in the gastrin fistula rat
Format: in vivo
Conditions: 0.3 and 1 mg/kg iv
Excerpt: (§1) The compounds of the invention are essential non-toxic a theraapeutically active doses.

Structure (SMILES) | gastric acid secretion
O=C(Nc1ccc(F)cc1)NC1C(=O)N(CC(=O)N2CCCC2)c2ccccc2N(C2CCCCC2)C1=O (single isomer, unassigned) [Example 1 (isomer 1), 1-[1-Cyclohexyl-2,4-dioxo-5-(2-oxo-2-pyrrolidin-1-yl-ethyl)-2,3,4,5-tetrahydro-1H-benzo[b][1.4]diazepin-3-yl]-3-(4-fluoro-phenyl)urea] | significally inhibited

Tested on: not listed separately
Test: untoward effects in the gastrin fistula rat
Format: in vivo
Conditions: 0.3 and 1 mg/kg iv
Excerpt: as §1

untoward effects | Structure (SMILES)
no untoward effects were observed | O=C(Nc1ccc(F)cc1)NC1C(=O)N(CC(=O)N2CCCC2)c2ccccc2N(C2CCCCC2)C1=O (single isomer, unassigned) [Example 1 (isomer 1), 1-[1-Cyclohexyl-2,4-dioxo-5-(2-oxo-2-pyrrolidin-1-yl-ethyl)-2,3,4,5-tetrahydro-1H-benzo[b][1.4]diazepin-3-yl]-3-(4-fluoro-phenyl)urea]
